According to the supplement of paper PMC8882468:

What follows are compounds tested on HCI-016 (organoid from a triple-negative breast cancer xenograft) (assay: CTG-3D luminescence at 96 h relative to day-0 seeding control (ratio to day 0); higher = more growth / less cytotoxicity; PDxO 3D drug screen (set 2), 96 h, CTG-3D normalised to day-0 seeding control.). Conditions: 1 µM; days in culture: 305.

| Structure (SMILES) | CTG-3D luminescence at 96 h |
| --- | --- |
| CCOc1ccn(-c2ccc(F)cc2)c(=O)c1C(=O)Nc1ccc(Oc2ccnc(N)c2Cl)c(F)c1 [ASLAN002] | 2.71 |
| C[C@@H](Nc1cc(F)cc(F)c1)c1cc(C(=O)N(C)C)cc2c(=O)cc(N3CCOCC3)oc12 [AZD-8186] | 1.53 |
| COc1cccc2c1C(=O)c1c(O)c3c(c(O)c1C2=O)C[C@@](O)(C(=O)CO)C[C@@H]3O[C@H]1C[C@H](N)[C@@H](O)[C@H](C)O1 [epirubicin] | 0.0989 |
| CC(=O)c1c(C)c2cnc(Nc3ccc(N4CCNCC4)cn3)nc2n(C2CCCC2)c1=O [palbociclib] | 2.9 |
| O=C(c1cc(Cc2n[nH]c(=O)c3ccccc23)ccc1F)N1CCN(C(=O)C2CC2)CC1 [olaparib] | 1.96 |

Same assay, conditions: 1 µM; days in culture: 327

| Structure (SMILES) | CTG-3D luminescence at 96 h |
| --- | --- |
| CCOc1ccn(-c2ccc(F)cc2)c(=O)c1C(=O)Nc1ccc(Oc2ccnc(N)c2Cl)c(F)c1 [ASLAN002] | 1.87 |
| C[C@@H](Nc1cc(F)cc(F)c1)c1cc(C(=O)N(C)C)cc2c(=O)cc(N3CCOCC3)oc12 [AZD-8186] | 0.902 |
| COc1cccc2c1C(=O)c1c(O)c3c(c(O)c1C2=O)C[C@@](O)(C(=O)CO)C[C@@H]3O[C@H]1C[C@H](N)[C@@H](O)[C@H](C)O1 [epirubicin] | 0.0556 |
| CC(=O)c1c(C)c2cnc(Nc3ccc(N4CCNCC4)cn3)nc2n(C2CCCC2)c1=O [palbociclib] | 1.15 |
| O=C(c1cc(Cc2n[nH]c(=O)c3ccccc23)ccc1F)N1CCN(C(=O)C2CC2)CC1 [olaparib] | 1.34 |

Same assay, conditions: 1 µM; days in culture: 341

| Structure (SMILES) | CTG-3D luminescence at 96 h |
| --- | --- |
| CCOc1ccn(-c2ccc(F)cc2)c(=O)c1C(=O)Nc1ccc(Oc2ccnc(N)c2Cl)c(F)c1 [ASLAN002] | 1.97 |
| C[C@@H](Nc1cc(F)cc(F)c1)c1cc(C(=O)N(C)C)cc2c(=O)cc(N3CCOCC3)oc12 [AZD-8186] | 1.81 |
| COc1cccc2c1C(=O)c1c(O)c3c(c(O)c1C2=O)C[C@@](O)(C(=O)CO)C[C@@H]3O[C@H]1C[C@H](N)[C@@H](O)[C@H](C)O1 [epirubicin] | 0.0279 |
| CC(=O)c1c(C)c2cnc(Nc3ccc(N4CCNCC4)cn3)nc2n(C2CCCC2)c1=O [palbociclib] | 1.67 |
| O=C(c1cc(Cc2n[nH]c(=O)c3ccccc23)ccc1F)N1CCN(C(=O)C2CC2)CC1 [olaparib] | 1.62 |

Same assay, conditions: 1 µM; days in culture: 397

| Structure (SMILES) | CTG-3D luminescence at 96 h |
| --- | --- |
| CCOc1ccn(-c2ccc(F)cc2)c(=O)c1C(=O)Nc1ccc(Oc2ccnc(N)c2Cl)c(F)c1 [ASLAN002] | 2.39 |
| C[C@@H](Nc1cc(F)cc(F)c1)c1cc(C(=O)N(C)C)cc2c(=O)cc(N3CCOCC3)oc12 [AZD-8186] | 2.14 |
| COc1cccc2c1C(=O)c1c(O)c3c(c(O)c1C2=O)C[C@@](O)(C(=O)CO)C[C@@H]3O[C@H]1C[C@H](N)[C@@H](O)[C@H](C)O1 [epirubicin] | 0.0199 |
| CC(=O)c1c(C)c2cnc(Nc3ccc(N4CCNCC4)cn3)nc2n(C2CCCC2)c1=O [palbociclib] | 2.38 |
| O=C(c1cc(Cc2n[nH]c(=O)c3ccccc23)ccc1F)N1CCN(C(=O)C2CC2)CC1 [olaparib] | 2.07 |

Same assay, conditions: 10 µM; days in culture: 305

| Structure (SMILES) | CTG-3D luminescence at 96 h |
| --- | --- |
| CCOc1ccn(-c2ccc(F)cc2)c(=O)c1C(=O)Nc1ccc(Oc2ccnc(N)c2Cl)c(F)c1 [ASLAN002] | 1.97 |
| C[C@@H](Nc1cc(F)cc(F)c1)c1cc(C(=O)N(C)C)cc2c(=O)cc(N3CCOCC3)oc12 [AZD-8186] | 1.97 |
| COc1cccc2c1C(=O)c1c(O)c3c(c(O)c1C2=O)C[C@@](O)(C(=O)CO)C[C@@H]3O[C@H]1C[C@H](N)[C@@H](O)[C@H](C)O1 [epirubicin] | 0.0325 |
| CC(=O)c1c(C)c2cnc(Nc3ccc(N4CCNCC4)cn3)nc2n(C2CCCC2)c1=O [palbociclib] | 1.83 |
| O=C(c1cc(Cc2n[nH]c(=O)c3ccccc23)ccc1F)N1CCN(C(=O)C2CC2)CC1 [olaparib] | 1.22 |

Same assay, conditions: 10 µM; days in culture: 327

| Structure (SMILES) | CTG-3D luminescence at 96 h |
| --- | --- |
| CCOc1ccn(-c2ccc(F)cc2)c(=O)c1C(=O)Nc1ccc(Oc2ccnc(N)c2Cl)c(F)c1 [ASLAN002] | 1.58 |
| C[C@@H](Nc1cc(F)cc(F)c1)c1cc(C(=O)N(C)C)cc2c(=O)cc(N3CCOCC3)oc12 [AZD-8186] | 1.31 |
| COc1cccc2c1C(=O)c1c(O)c3c(c(O)c1C2=O)C[C@@](O)(C(=O)CO)C[C@@H]3O[C@H]1C[C@H](N)[C@@H](O)[C@H](C)O1 [epirubicin] | 0.0566 |
| CC(=O)c1c(C)c2cnc(Nc3ccc(N4CCNCC4)cn3)nc2n(C2CCCC2)c1=O [palbociclib] | 1.59 |
| O=C(c1cc(Cc2n[nH]c(=O)c3ccccc23)ccc1F)N1CCN(C(=O)C2CC2)CC1 [olaparib] | 1.59 |

Same assay, conditions: 10 µM; days in culture: 341

| Structure (SMILES) | CTG-3D luminescence at 96 h |
| --- | --- |
| CCOc1ccn(-c2ccc(F)cc2)c(=O)c1C(=O)Nc1ccc(Oc2ccnc(N)c2Cl)c(F)c1 [ASLAN002] | 2 |
| C[C@@H](Nc1cc(F)cc(F)c1)c1cc(C(=O)N(C)C)cc2c(=O)cc(N3CCOCC3)oc12 [AZD-8186] | 2.04 |
| COc1cccc2c1C(=O)c1c(O)c3c(c(O)c1C2=O)C[C@@](O)(C(=O)CO)C[C@@H]3O[C@H]1C[C@H](N)[C@@H](O)[C@H](C)O1 [epirubicin] | 0.103 |
| CC(=O)c1c(C)c2cnc(Nc3ccc(N4CCNCC4)cn3)nc2n(C2CCCC2)c1=O [palbociclib] | 1.9 |
| O=C(c1cc(Cc2n[nH]c(=O)c3ccccc23)ccc1F)N1CCN(C(=O)C2CC2)CC1 [olaparib] | 1.79 |

Same assay, conditions: 10 µM; days in culture: 397

| Structure (SMILES) | CTG-3D luminescence at 96 h |
| --- | --- |
| CCOc1ccn(-c2ccc(F)cc2)c(=O)c1C(=O)Nc1ccc(Oc2ccnc(N)c2Cl)c(F)c1 [ASLAN002] | 2.98 |
| C[C@@H](Nc1cc(F)cc(F)c1)c1cc(C(=O)N(C)C)cc2c(=O)cc(N3CCOCC3)oc12 [AZD-8186] | 1.87 |
| COc1cccc2c1C(=O)c1c(O)c3c(c(O)c1C2=O)C[C@@](O)(C(=O)CO)C[C@@H]3O[C@H]1C[C@H](N)[C@@H](O)[C@H](C)O1 [epirubicin] | 0.108 |
| CC(=O)c1c(C)c2cnc(Nc3ccc(N4CCNCC4)cn3)nc2n(C2CCCC2)c1=O [palbociclib] | 1.99 |
| O=C(c1cc(Cc2n[nH]c(=O)c3ccccc23)ccc1F)N1CCN(C(=O)C2CC2)CC1 [olaparib] | 1.74 |
